In PubChem BioAssay (NCI):
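Method: 48-hour compound exposure of cells in 96-well plates, five concentrations, linear interpolation of endpoints. TGI is the concentration that stops growth completely.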 Where a SMILES comes first, the peptide text is derived from it. The star is where a group is joined. OSu = O=C1CCC(=O)N1O*

Key:
Experiment in all cases: inhibition of tumour cell growth, NCI panel, 48 h
TK-10 renal = system: TK-10 renal
MCF7 breast = system: MCF7 breast
HCT-15 colon = system: HCT-15 colon
UACC-62 melanoma = system: UACC-62 melanoma
HOP-92 NSCLC = system: HOP-92 NSCLC
HS 578T breast = system: HS 578T breast
RXF 393 renal = system: RXF 393 renal
SNB-19 CNS = system: SNB-19 CNS
SNB-75 CNS = system: SNB-75 CNS
A549 NSCLC = system: A549 NSCLC
HOP-62 NSCLC = system: HOP-62 NSCLC
IGROV1 ovarian = system: IGROV1 ovarian
MDA-N = system: MDA-N
NCI-H226 lung = system: NCI-H226 lung
NCI/ADR-RES ovarian = system: NCI/ADR-RES ovarian
HCT-116 colon = system: HCT-116 colon

## C=CCCC(=O)C(=[N+]=[N-])C(=O)CCC(=O)c1ccccc1
TK-10 renal
  TGI: > 10 µM
MCF7 breast
  TGI: > 10 µM
HCT-15 colon
  TGI: > 10 µM
UACC-62 melanoma
  TGI: > 10 µM
HOP-92 NSCLC
  TGI: > 10 µM
HS 578T breast
  TGI: > 10 µM
RXF 393 renal
  TGI: > 10 µM
SNB-19 CNS
  TGI: > 10 µM
SNB-75 CNS
  TGI: > 10 µM
A549 NSCLC
  TGI: > 10 µM
HOP-62 NSCLC
  TGI: > 10 µM
IGROV1 ovarian
  TGI: > 10 µM
MDA-N
  TGI: > 10 µM
NCI-H226 lung
  TGI: > 10 µM

## O=c1[nH]nc(-c2ccc(F)cc2)cc1-c1ccccc1
TK-10 renal
  TGI: > 100 µM
MCF7 breast
  TGI: > 100 µM
HCT-15 colon
  TGI: > 100 µM
UACC-62 melanoma
  TGI: > 100 µM
NCI/ADR-RES ovarian
  TGI: > 100 µM
HCT-116 colon
  TGI: > 100 µM
HOP-92 NSCLC
  TGI: > 100 µM
HS 578T breast
  TGI: > 100 µM
RXF 393 renal
  TGI: > 100 µM
SNB-19 CNS
  TGI: > 100 µM
A549 NSCLC
  TGI: > 100 µM
IGROV1 ovarian
  TGI: > 100 µM
NCI-H226 lung
  TGI: > 100 µM

## C/C(O)=C(\C=NC(=S)c1ccncc1)C(=O)Nc1ccccc1C
TK-10 renal
  TGI: > 100 µM
MCF7 breast
  TGI: > 100 µM
HCT-15 colon
  TGI: > 100 µM
UACC-62 melanoma
  TGI: > 100 µM
NCI/ADR-RES ovarian
  TGI: > 100 µM
HCT-116 colon
  TGI: > 100 µM
HOP-92 NSCLC
  TGI: > 100 µM
RXF 393 renal
  TGI: > 100 µM
SNB-19 CNS
  TGI: > 100 µM
SNB-75 CNS
  TGI: > 100 µM
A549 NSCLC
  TGI: > 100 µM
HOP-62 NSCLC
  TGI: > 100 µM
IGROV1 ovarian
  TGI: > 100 µM
MDA-N
  TGI: > 100 µM
NCI-H226 lung
  TGI: > 100 µM

## O/N=C\C(=Nc1ccc(Cc2ccc(N=C(/C=N\O)NO)cc2)cc1)NO
TK-10 renal
  TGI: > 100 µM
HCT-15 colon
  TGI: > 100 µM
UACC-62 melanoma
  TGI: > 100 µM
HCT-116 colon
  TGI: > 100 µM
HOP-92 NSCLC
  TGI: > 100 µM
SNB-19 CNS
  TGI: > 100 µM
A549 NSCLC
  TGI: > 100 µM
HOP-62 NSCLC
  TGI: > 100 µM
IGROV1 ovarian
  TGI: > 100 µM
NCI-H226 lung
  TGI: > 100 µM

## CCOc1cc(-c2nc3cc(F)ccc3s2)ccc1O
TK-10 renal
  TGI: 34 µM
MCF7 breast
  TGI: 23 µM
HCT-15 colon
  TGI: 29 µM
UACC-62 melanoma
  TGI: 31.6 µM
NCI/ADR-RES ovarian
  TGI: 50.2 µM
HCT-116 colon
  TGI: 47.3 µM
RXF 393 renal
  TGI: 35.4 µM
SNB-19 CNS
  TGI: 30.7 µM
A549 NSCLC
  TGI: 37 µM
IGROV1 ovarian
  TGI: 26 µM
MDA-N
  TGI: 31.7 µM
NCI-H226 lung
  TGI: 34.2 µM

## CC(=O)n1nc(-c2ccc3ccccc3c2)nc1C
TK-10 renal
  TGI: > 100 µM
MCF7 breast
  TGI: > 100 µM
HCT-15 colon
  TGI: > 100 µM
UACC-62 melanoma
  TGI: > 100 µM
NCI/ADR-RES ovarian
  TGI: > 100 µM
HCT-116 colon
  TGI: > 100 µM
HS 578T breast
  TGI: > 100 µM
RXF 393 renal
  TGI: > 100 µM
SNB-75 CNS
  TGI: > 100 µM
A549 NSCLC
  TGI: > 100 µM
HOP-62 NSCLC
  TGI: > 100 µM
IGROV1 ovarian
  TGI: > 100 µM
MDA-N
  TGI: > 100 µM

## OC12c3ccccc3C1CCCCCC21OCCCO1 (stereo not given)
TK-10 renal
  TGI: > 100 µM
HCT-15 colon
  TGI: > 100 µM
UACC-62 melanoma
  TGI: > 100 µM
HCT-116 colon
  TGI: > 100 µM
RXF 393 renal
  TGI: > 100 µM
SNB-19 CNS
  TGI: > 100 µM
SNB-75 CNS
  TGI: > 100 µM
A549 NSCLC
  TGI: > 100 µM
HOP-62 NSCLC
  TGI: > 100 µM
IGROV1 ovarian
  TGI: > 100 µM
NCI-H226 lung
  TGI: > 100 µM

## CC1(C)OC2OC(COC(=O)c3ccc(C#N)cc3)C3OC(C)(C)OC3C2O1 (stereo not given)
TK-10 renal
  TGI: > 75 µM
MCF7 breast
  TGI: > 75 µM
HCT-15 colon
  TGI: > 75 µM
UACC-62 melanoma
  TGI: > 75 µM
NCI/ADR-RES ovarian
  TGI: > 75 µM
HCT-116 colon
  TGI: > 75 µM
RXF 393 renal
  TGI: > 75 µM
SNB-19 CNS
  TGI: > 75 µM
SNB-75 CNS
  TGI: > 75 µM
A549 NSCLC
  TGI: > 75 µM
HOP-62 NSCLC
  TGI: > 75 µM
IGROV1 ovarian
  TGI: > 75 µM
MDA-N
  TGI: > 75 µM
NCI-H226 lung
  TGI: > 75 µM

## CC(=O)NC1=C(N)C(=O)c2ccccc2C1=O
TK-10 renal
  TGI: > 100 µM
HCT-15 colon
  TGI: > 100 µM
UACC-62 melanoma
  TGI: > 100 µM
HCT-116 colon
  TGI: 35 µM
HOP-92 NSCLC
  TGI: > 100 µM
RXF 393 renal
  TGI: > 100 µM
SNB-19 CNS
  TGI: > 100 µM
SNB-75 CNS
  TGI: > 100 µM
A549 NSCLC
  TGI: > 100 µM
HOP-62 NSCLC
  TGI: > 100 µM
IGROV1 ovarian
  TGI: > 100 µM

## CCCCCCCCCC(=O)NC(Cc1ccc(O)cc1)C(=O)NCCCNCCCCNCCCNC(=O)[C@@H](N)CCCN=C(N)N (stereo not given in full)
TK-10 renal
  TGI: > 100 µM
HCT-15 colon
  TGI: > 100 µM
HCT-116 colon
  TGI: > 100 µM
SNB-19 CNS
  TGI: > 100 µM
A549 NSCLC
  TGI: > 100 µM
HOP-62 NSCLC
  TGI: 69.5 µM
IGROV1 ovarian
  TGI: 74.5 µM
NCI-H226 lung
  TGI: > 100 µM

## CC(=O)O[C@H]1C(=O)[C@@]2(C)[C@H]([C@H](OC(=O)c3ccccc3)[C@]3(O)C[C@H](OC(=O)[C@H](O)[C@@H](NC(=O)c4ccc(N(C)C)cc4)c4ccccc4)C(C)=C1C3(C)C)[C@]1(OC(C)=O)CO[C@@H]1C[C@@H]2O
TK-10 renal
  TGI: > 45.1 µM
MCF7 breast
  TGI: > 50 µM
HCT-15 colon
  TGI: > 50 µM
UACC-62 melanoma
  TGI: > 50 µM
NCI/ADR-RES ovarian
  TGI: 16.7 µM
HCT-116 colon
  TGI: > 50 µM
HOP-92 NSCLC
  TGI: > 50 µM
HS 578T breast
  TGI: 0.00632 µM
RXF 393 renal
  TGI: 0.226 µM
SNB-19 CNS
  TGI: > 50 µM
SNB-75 CNS
  TGI: > 50 µM
A549 NSCLC
  TGI: > 50 µM
HOP-62 NSCLC
  TGI: > 50 µM
IGROV1 ovarian
  TGI: > 50 µM

## CC(=O)NC1(C)C(C)C2CC1C(C)C2(C)C (stereo not given)
TK-10 renal
  TGI: > 100 µM
MCF7 breast
  TGI: > 100 µM
UACC-62 melanoma
  TGI: > 100 µM
HCT-116 colon
  TGI: > 100 µM
HOP-92 NSCLC
  TGI: > 100 µM
HS 578T breast
  TGI: > 100 µM
RXF 393 renal
  TGI: > 100 µM
SNB-19 CNS
  TGI: > 100 µM
SNB-75 CNS
  TGI: > 100 µM
A549 NSCLC
  TGI: > 100 µM
HOP-62 NSCLC
  TGI: > 100 µM
IGROV1 ovarian
  TGI: > 100 µM
MDA-N
  TGI: > 100 µM
NCI-H226 lung
  TGI: > 100 µM

## CC(=O)NC1C(OCc2ccccc2)OC(CO)C(O)C1OCC(=O)N[C@@H](C)C(=O)N[C@H](CCC(=O)NCCNc1ccc([N+](=O)[O-])c2[nH]c3ccccc3c(=O)c12)C(N)=O (stereo not given in full)
TK-10 renal
  TGI: 42.3 µM
HCT-15 colon
  TGI: 44.9 µM
UACC-62 melanoma
  TGI: 46.6 µM
NCI/ADR-RES ovarian
  TGI: 59.7 µM
HCT-116 colon
  TGI: > 100 µM
HOP-92 NSCLC
  TGI: 80.8 µM
HS 578T breast
  TGI: > 100 µM
SNB-19 CNS
  TGI: 93.2 µM
SNB-75 CNS
  TGI: 61.5 µM
HOP-62 NSCLC
  TGI: > 100 µM
MDA-N
  TGI: > 100 µM
NCI-H226 lung
  TGI: 32.4 µM

## COC(=O)CCC(=O)N1CC1C (stereo not given)
TK-10 renal
  TGI: > 100 µM
HCT-15 colon
  TGI: > 100 µM
UACC-62 melanoma
  TGI: > 100 µM
HCT-116 colon
  TGI: > 100 µM
HOP-92 NSCLC
  TGI: > 100 µM
RXF 393 renal
  TGI: > 100 µM
SNB-19 CNS
  TGI: > 100 µM
SNB-75 CNS
  TGI: > 100 µM
A549 NSCLC
  TGI: > 100 µM
HOP-62 NSCLC
  TGI: > 100 µM
IGROV1 ovarian
  TGI: > 100 µM
NCI-H226 lung
  TGI: > 100 µM

## NCCCCC(NC(=O)C(N)Cc1ccc(O)cc1)C(=O)NC(Cc1ccc(O)cc1)C(=O)NC(CCCCN)C(=O)ON1C(=O)CCC1=O (stereo not given) (H-YKYK-OSu; configuration not given here)
TK-10 renal
  TGI: > 100 µM
MCF7 breast
  TGI: > 100 µM
HCT-15 colon
  TGI: > 100 µM
UACC-62 melanoma
  TGI: > 100 µM
HCT-116 colon
  TGI: > 100 µM
HOP-92 NSCLC
  TGI: > 100 µM
HS 578T breast
  TGI: > 100 µM
RXF 393 renal
  TGI: > 100 µM
SNB-19 CNS
  TGI: > 100 µM
SNB-75 CNS
  TGI: > 100 µM
A549 NSCLC
  TGI: > 100 µM
HOP-62 NSCLC
  TGI: > 100 µM
IGROV1 ovarian
  TGI: > 100 µM
MDA-N
  TGI: > 100 µM
NCI-H226 lung
  TGI: > 100 µM

## C/C(O[Si](C(C)C)(C(C)C)C(C)C)=C(\C)C(=O)N(C)c1ccccc1Cl
TK-10 renal
  TGI: > 100 µM
HCT-15 colon
  TGI: > 100 µM
NCI/ADR-RES ovarian
  TGI: > 100 µM
HCT-116 colon
  TGI: > 100 µM
HOP-92 NSCLC
  TGI: > 100 µM
RXF 393 renal
  TGI: > 100 µM
SNB-19 CNS
  TGI: > 100 µM
SNB-75 CNS
  TGI: > 100 µM
A549 NSCLC
  TGI: > 100 µM
HOP-62 NSCLC
  TGI: > 100 µM
IGROV1 ovarian
  TGI: > 100 µM
NCI-H226 lung
  TGI: > 100 µM

## COc1cc(C2c3cc4c(cc3[C@@H](N(C)c3ccc(N(C)C)cc3)C3COC(=O)C23)OCO4)cc(OC)c1O (stereo not given in full)
TK-10 renal
  TGI: 33.1 µM
HCT-15 colon
  TGI: 25.7 µM
UACC-62 melanoma
  TGI: 23.1 µM
HCT-116 colon
  TGI: 14.8 µM
HOP-92 NSCLC
  TGI: 36.8 µM
SNB-19 CNS
  TGI: 42.6 µM
SNB-75 CNS
  TGI: 42.3 µM
HOP-62 NSCLC
  TGI: > 100 µM
IGROV1 ovarian
  TGI: 31.5 µM
NCI-H226 lung
  TGI: 0.625 µM
